Source: article PMC10682194, “Structural insights into ligand recognition and selectivity of the human hydroxycarboxylic acid receptor HCAR2” (Cell Discovery, 2023)
Like-named read-outs stand apart in the source and are kept apart here.

Key:
HCAR2 [1] = conditions: cited from earlier work
HCAR3 = HCAR3 (Homo sapiens, UniProt P49019); conditions: HCAR2 natural ligands on HCAR3; cited from earlier work
[2] = tested on: HCAR2 mutants at positions 86, 91, 103, 107, 176, and 178; assay: Gi/o-cAMP assay, HCAR2 residues mutated to the allelic residues in HCAR3; format: cell-based, human; conditions: six HCAR2 residues mutated to HCAR3 residues
Procedure: (§1) The Gi/o-cAMP assay was performed as follows. […] Data were analyzed with GraphPad Prism 9.0. The experiments were performed in triplicate.

wild-type HCAR2 = molecular target: T1, wild-type HCAR2 (Homo sapiens, UniProt Q8TDS4); assay: SPR binding affinity, wild-type receptor
T1 construct: expressed in transfected cells; host or cells: HEK293 cells (ATCC CRL-1573)
Procedure: Varying concentrations of agonist diluted in running buffer were injected as analytes for 100 s, as the period of association. Subsequently, the running buffer was alternatively perfused over the chip to allow the bound agonist to undergo a 50 s period of disassociation. Sensorgrams were recorded in real-time and analyzed in the Biacore X100 system for the calculation of binding affinity (KD).

[3] = tested on: HCAR3 mutants at positions 86, 91, 103, 107, 176, and 178; assay: Gi/o-cAMP assay, reverse mutations in HCAR3; format: cell-based, human; conditions: reverse mutations of the six residues in HCAR3
Procedure: as §1

HCAR2 [4] = tested on: HCAR2; set-up: method as in PMID 19349687; conditions: HCAR2 agonist; cited from earlier work
[5] = dog, compared to niacin; cited from earlier work
[6] = rat, compared to niacin; cited from earlier work

HCAR3, sequence (P49019 whole entry): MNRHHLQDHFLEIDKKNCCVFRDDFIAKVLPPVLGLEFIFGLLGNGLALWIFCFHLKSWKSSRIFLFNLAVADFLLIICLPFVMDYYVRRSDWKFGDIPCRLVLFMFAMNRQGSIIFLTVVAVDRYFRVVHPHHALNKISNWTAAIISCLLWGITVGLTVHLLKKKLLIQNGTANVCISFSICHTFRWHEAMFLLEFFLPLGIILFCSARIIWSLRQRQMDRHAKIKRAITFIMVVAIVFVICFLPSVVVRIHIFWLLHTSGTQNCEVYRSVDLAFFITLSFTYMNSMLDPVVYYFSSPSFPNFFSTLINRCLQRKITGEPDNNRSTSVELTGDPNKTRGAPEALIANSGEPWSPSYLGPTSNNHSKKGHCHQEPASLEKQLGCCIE
T1 sequence (Q8TDS4 whole entry): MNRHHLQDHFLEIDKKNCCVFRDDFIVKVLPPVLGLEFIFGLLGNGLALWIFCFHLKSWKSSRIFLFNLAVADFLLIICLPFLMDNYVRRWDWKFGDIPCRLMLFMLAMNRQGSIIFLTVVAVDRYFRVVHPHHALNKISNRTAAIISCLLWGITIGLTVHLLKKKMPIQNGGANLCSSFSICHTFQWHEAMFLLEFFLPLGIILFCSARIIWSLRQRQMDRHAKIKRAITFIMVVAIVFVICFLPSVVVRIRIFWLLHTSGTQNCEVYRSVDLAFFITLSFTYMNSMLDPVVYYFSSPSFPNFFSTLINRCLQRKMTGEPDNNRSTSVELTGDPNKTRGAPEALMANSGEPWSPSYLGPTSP

CCCCCC(O)CC(=O)O (stereo not drawn) [3-hydroxyoctanoic acid]
activation of HCAR2 (HCAR2 [1]; natural ligand of HCAR3 tested on HCAR2): not activated

CC(O)CC(=O)O (stereo not drawn) [β-OHB, β-hydroxybutyrate]
potency for HCAR2 relative to butyrate (HCAR2 [1]; endogenous ligands): higher potency | activity toward HCAR3 (HCAR3): no activity

Cc1cnc(C(=O)O)c[n+]1[O-] [acipimox]
effect of mutations on agonist activity in HCAR2 [2]: markedly reduced | Kd (wild-type HCAR2): 429 nM | agonistic activity compared to wild-type HCAR3 [3]: increased | EC50 (HCAR2 [1]; agonist of HCAR2): 2600 to 6000 nM

NC(=O)c1cccnc1 [nicotinamide]
activity toward HCAR2 (HCAR2 [1]; carboxyl group of niacin replaced with an amide group): no longer active

C1Cc2[nH]nc(-c3nn[nH]n3)c2C1 [MK-0354]
β-arrestin activation (HCAR2 [4]): weak

CCCC(=O)O [butyrate]
activity toward HCAR3 (HCAR3): no activity

CC(C)(Cc1nc(-c2ccc(O)cn2)no1)C(=O)NC1=C(C(=O)O)CCCC1 [MK-6892]
flushing effect [5]: significantly relieved | flushing effect [6]: significantly relieved
